Data published in publication PMC12668308, “A Novel Antimalarial Agent that Inhibits Protein Synthesis in Plasmodium falciparum” (Angewandte Chemie (International Ed. in English), 2025).

What was measured:
[1] = tested on: DNA primase large subunit (W7KFW7); experiment: iSPP profiling, P. falciparum lysate; type: binding, Plasmodium falciparum
Method: (§1) P. falciparum NF54 lysates were extracted as described in ^[26^] . The parasite asynchronous culture was extracted once 3-5% parasitemia was reached. Saponin lysis was done as described in 2.2.10. Once the parasite pellet was obtained, 2.5 volumes of ice-cold lysis buffer (50 mM Tris/HCl pH 7.5 (Avantor), 5% glycerol (Sigma-Aldrich), 150 mM NaCl (Carl Roth), 1.5 mM MgCl2 (Sigma-Aldrich), 1 mM DTT (Carl Roth), 0.8% IGEPAL CA-630 (Sigma-Aldrich), 1X Halt Protease and Phosphatase Inhibitor-Cocktails EDTA-free (Thermo Fisher Scientific)) was added to the parasite pellet. The lysate solution was subjected to three cycles of flash freeze-thaw with liquid nitrogen and ddH2O at RT. The lysates were centrifuged at 20,000 g for 20 minutes at 4 °C. The soluble protein fraction (supernatant) was collected and the protein content was quantified using the BCA assay (Pierce™ BCA Protein Assay Kit, Thermo Fisher Scientific). The lysate was stored at -80 °C until further use.
(§2) The P. falciparum lysate was thawed on ice and diluted to 0.8 mg/mL. […] Subsequently, the samples were incubated at room temperature for 30 minutes using a rotating mixer. After distribution into a 96-well plate, the samples were treated with increasing concentrations of A.E.A. (v/v) ranging from 14% to 28% (14, 16, 18, 20, 22, 24, 26, and 28%). Following a 20-minute incubation at 37°C with shaking at 750 rpm, the samples were centrifuged at 4400 g for 35 minutes to remove precipitated proteins. The soluble fractions were then pooled in equal volumes into a single sample using the Bravo Automated Liquid Handling Platform. The pooled samples were subsequently prepared for LC-MS/MS analysis.
(§3) The raw LFQ-DIA intensity values of biological replicates across all conditions were normalized to the median abundance using Excel. The normalized values were then log2 transformed in Perseus (v2.0.10.0).^[58^] Missing values were imputed from a normal distribution (width 0.3, down shift 1.5), and p-values were obtained using a two-sample t-test over replicates with a permutation-based false discovery rate correction (FDR 0.05). Volcano plots were generated in RStudio using the EnhancedVolcano package (v. 1.20.0), ^[59^] plotting proteins by statistical significance (y-axis: –Log10 p-value) versus the magnitude of change (x-axis: log2 fold change of protein intensities for each compound condition relative to the vehicle control). The heatmap was generated in Perseus (v2.0.10.0). Dose-dependent curves were generated using normalized protein intensity values, expressed as a ratio to the vehicle control. Plots were created in GraphPad Prism (v8.3.0) using a nonlinear regression model.

[2] = tested on: Uncharacterized protein (W7JXC3); experiment: iSPP profiling, P. falciparum lysate; type: binding, Plasmodium falciparum
Method: as §1, §2, §3

[3] = tested on: AAA family ATPase (W7JWU4); experiment: iSPP profiling, P. falciparum lysate; type: binding, Plasmodium falciparum
Method: as §1, §2, §3

Dd2b2^31-R2.1 = experiment: [3H]-hypoxanthine incorporation assay; type: cell-based, Plasmodium falciparum
Method: (§4) P. falciparum asexual blood stage parasites were cultured in human red blood cells (RBC, Blutspende SRK, Zurich) at a hematocrit of 5% in RPMI 1640 medium. The RPMI 1640 medium (ThermoFisher Scientific #51800−043) was supplemented with the following: 24 mM NaHCO3 (pH 7.3, Sigma-Aldrich #31437−500G-R), 25 mM Hepes (Sigma-Aldrich #H4034−500G), 0.36 mM hypoxanthine (Sigma-Aldrich # H9377−25G), 100 µg mL^-1 neomycin (Sigma-Aldrich #N6386−100G) and 0.5% Albumax II (Thermo Fisher #11021−045). Additionally, 2 mM choline chloride (279 mg/L, Sigma-Aldrich #C7527−100G) was added to the culture to block the induction of sexual commitment as described. ^[31^] The RPMI 1640 medium and components were dissolved in water (Milli-Q purified), stirred for at least 3 h, and then sterile filtered (0.22 μm pore size) with a bottle top filter (Corning # 431118). Parasite cultures were maintained in an atmosphere of 3% O2, 4% CO2, and 93% N2 in air-tight chambers at 37 °C. The [^3H]-hypoxanthine incorporation assay was used to test compound activity in the specific parasite lines as described.^[32^] Briefly, compounds were dissolved in DMSO (10 mM) and diluted in a hypoxanthine-free culture medium. A limiting dilution was performed over a 64-fold range (6-step twofold dilution) in a 96-well plate in duplicates. For every starting concentration, a limiting dilution was performed over a 64-fold range (6-step twofold dilution) in a 96-well plate in two biological duplicates. Parasites were added at 100 µL to each well containing the compound to obtain a final parasitemia of 0.3% and haematocrit of 1.25%. The plates were incubated for 48 h before 0.25 µCi of [^3H]-hypoxanthine was added per well for an additional 24 h. Parasites were harvested on a glass-fiber filter with a Microbeta FilterMate cell harvester (Perkin Elmer, Waltham, USA) and radioactivity was counted using a MicroBeta2 liquid scintillation counter (Perkin Elmer, Waltham, US). […] The fifty percent inhibitory concentration (IC50) was calculated by using nonlinear, four parameter (variable slope) curve fitting as described ^[33^] after importing into GraphPad Prism (version 8.3.0).
(§5) 31 was used for resistance selection studies using the strain Dd2b2 (kindly provided by David Fidock). Resistance selection was done as described in ^[34^]. As summarized in Table S3, an initial inoculum of 2 x 10^9 asexual blood stage parasites (at 2-2.5% parasitemia) were cultured in three independent flasks. […] Cloning via limiting dilution was performed to obtain resistant clones for further characterization as described in section 2.2.5.

Dd2b2^31-R3.1 = experiment: [3H]-hypoxanthine incorporation assay; type: cell-based, Plasmodium falciparum
Method: as §4, §5

Dd2b2^31-R1.2 = experiment: [3H]-hypoxanthine incorporation assay; type: cell-based, Plasmodium falciparum
Method: as §4, §5

Dd2b2^31-R2.2 = experiment: [3H]-hypoxanthine incorporation assay; type: cell-based, Plasmodium falciparum
Method: as §4, §5

[4] = tested on: 60S ribosomal protein L7 (W7KAU4); experiment: iSPP profiling, P. falciparum lysate; type: binding, Plasmodium falciparum
[5] = Plasmodium falciparum, read-out: mean IC50 value ± s.d.

Structure (SMILES): CN1CCN(Cc2ccc(O)c(NC(=O)c3cccc(Oc4cc(C(F)(F)F)ccn4)c3)c2)CC1 [Compound 31, N-(2-hydroxy-5-((4-methylpiperazin-1-yl)methyl)phenyl)-3-((4-(trifluoromethyl)pyridin-2-yl)oxy)benzamide]
- log2FC ([1]; 10 µM): 0.33
- log2FC ([1]; 50 µM): 0.51
- log2FC ([1]; 100 µM): 0.41
- log2FC ([1]; 10^-2 µM): 0.50
- log2FC ([1]; 10^-3 µM): 0.39
- log2FC ([2]; 10 µM): 0.50
- log2FC ([2]; 50 µM): 0.70
- log2FC ([2]; 100 µM): 0.40
- log2FC ([2]; 10^-2 µM): 0.36
- log2FC ([2]; 10^-3 µM): 0.02
- log2FC ([3]; 10 µM): 0.33
- log2FC ([3]; 50 µM): 0.46
- log2FC ([3]; 100 µM): 0.35
- log2FC ([3]; 10^-2 µM): 0.29
- log2FC ([3]; 10^-3 µM): 0.18
- IC50 fold change relative to Dd2b2^WT (Dd2b2^31-R2.1; Dd2b2^31-R2.1): 16.9
- IC50 (Dd2b2^31-R2.1; [5]): 225 ± 35.3 nM
- IC50 fold change relative to Dd2b2^WT (Dd2b2^31-R3.1; Dd2b2^31-R3.1): 14.5
- IC50 (Dd2b2^31-R3.1; [5]): 192 ± 35.3 nM
- IC50 fold change relative to Dd2b2^WT (Dd2b2^31-R1.2; Dd2b2^31-R1.2): 11.9
- IC50 (Dd2b2^31-R1.2; [5]): 159 ± 32.9 nM
- IC50 fold change relative to Dd2b2^WT (Dd2b2^31-R2.2; Dd2b2^31-R2.2): 11.6
- IC50 (Dd2b2^31-R2.2; [5]): 154 ± 26.3 nM
- log2FC ([4]; 10 µM): 0.75
- log2FC ([4]; 50 µM): 0.94
- log2FC ([4]; 100 µM): 0.74
- log2FC ([4]; 10^-2 µM): 0.69
- log2FC ([4]; 10^-3 µM): 0.33
